Experimental data as given in US9040506B2, “7,11-methanocycloocta [B] quinoline derivative as highly functionalizable acetylcholinesterase inhibitors” (priority 2010, dated 2015).
Where two headings read alike, the source gives them in different places.

What was measured:
[1] = target: rh-BuChE (Homo sapiens, UniProt P06276); test: IC50 rh-BuChE; format: biochemical
[2] = target: T1, erythrocyte h-AChE (Homo sapiens, UniProt P22303); test: IC50 erythrocyte h-AChE; format: biochemical
T1 construct: from tissue; host or cells: human erythrocytes
T1 sequence (P22303 32-617 isoform P22303-2 limits assumed): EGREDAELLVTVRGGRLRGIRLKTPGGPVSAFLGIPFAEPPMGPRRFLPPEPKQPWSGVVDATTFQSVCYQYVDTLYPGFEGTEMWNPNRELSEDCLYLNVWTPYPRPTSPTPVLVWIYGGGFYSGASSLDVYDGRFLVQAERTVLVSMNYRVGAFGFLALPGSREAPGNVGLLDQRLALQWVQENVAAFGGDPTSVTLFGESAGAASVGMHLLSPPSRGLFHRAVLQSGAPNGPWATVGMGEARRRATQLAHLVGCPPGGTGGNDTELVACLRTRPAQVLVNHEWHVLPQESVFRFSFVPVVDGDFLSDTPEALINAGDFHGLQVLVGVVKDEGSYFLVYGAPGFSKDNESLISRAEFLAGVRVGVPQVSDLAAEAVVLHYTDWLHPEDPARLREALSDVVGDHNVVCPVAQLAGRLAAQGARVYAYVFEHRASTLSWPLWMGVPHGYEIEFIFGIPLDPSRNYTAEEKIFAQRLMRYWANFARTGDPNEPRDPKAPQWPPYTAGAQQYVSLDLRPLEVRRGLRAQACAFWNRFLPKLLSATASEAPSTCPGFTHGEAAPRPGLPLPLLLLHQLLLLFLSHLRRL

[3] = target: rh-AChE (Homo sapiens, UniProt P22303); test: biochemical; details: read-out: IC50 rh-AChE
rh-AChE, sequence (P22303 32-614): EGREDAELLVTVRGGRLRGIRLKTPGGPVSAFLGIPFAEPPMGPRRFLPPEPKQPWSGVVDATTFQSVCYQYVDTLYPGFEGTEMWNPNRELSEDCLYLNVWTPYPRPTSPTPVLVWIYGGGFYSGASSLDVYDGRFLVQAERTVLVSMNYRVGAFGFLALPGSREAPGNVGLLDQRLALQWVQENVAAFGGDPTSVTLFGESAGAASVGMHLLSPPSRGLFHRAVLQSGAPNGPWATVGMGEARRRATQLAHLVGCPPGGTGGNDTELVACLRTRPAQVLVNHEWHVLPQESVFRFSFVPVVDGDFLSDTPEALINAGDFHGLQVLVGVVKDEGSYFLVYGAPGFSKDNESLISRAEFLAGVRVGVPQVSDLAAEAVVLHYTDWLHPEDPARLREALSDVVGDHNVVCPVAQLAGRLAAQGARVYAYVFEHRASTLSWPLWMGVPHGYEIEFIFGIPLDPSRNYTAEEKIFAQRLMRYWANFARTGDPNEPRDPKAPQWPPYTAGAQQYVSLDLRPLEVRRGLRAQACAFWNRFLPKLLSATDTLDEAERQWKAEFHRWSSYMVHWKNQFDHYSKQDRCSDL

[4] = target: T2, AChE (Homo sapiens, UniProt P22303); test: AChE inhibition, general statements; format: biochemical
T2 sequence (P22303 32-614): as above

[5] = target: T2, AChE; details: Camps et al.; cited from earlier work
[6] = read-out: IC50 erythrocyte h-AChE

rh-BuChE, sequence (P06276 29-602): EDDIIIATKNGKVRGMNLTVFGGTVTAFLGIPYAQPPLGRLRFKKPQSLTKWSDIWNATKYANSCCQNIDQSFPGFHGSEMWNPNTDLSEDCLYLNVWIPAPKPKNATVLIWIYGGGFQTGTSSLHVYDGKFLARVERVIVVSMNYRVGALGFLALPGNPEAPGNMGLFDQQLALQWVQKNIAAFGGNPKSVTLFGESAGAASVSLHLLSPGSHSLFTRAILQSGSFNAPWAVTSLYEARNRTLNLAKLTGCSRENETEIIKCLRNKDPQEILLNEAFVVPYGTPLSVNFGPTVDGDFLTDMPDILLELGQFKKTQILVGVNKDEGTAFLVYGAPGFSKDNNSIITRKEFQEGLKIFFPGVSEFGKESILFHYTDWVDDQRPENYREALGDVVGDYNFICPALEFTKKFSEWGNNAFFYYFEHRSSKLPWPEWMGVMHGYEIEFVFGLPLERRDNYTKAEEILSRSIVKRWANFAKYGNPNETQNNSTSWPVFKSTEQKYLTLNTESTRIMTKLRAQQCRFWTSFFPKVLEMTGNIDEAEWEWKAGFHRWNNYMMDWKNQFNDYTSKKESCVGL

Compound	IC50 ([1]; read-out: IC50 rh-BuChE) [nM]	IC50 [2, 6] [nM]	IC50 [3] [nM]	activity compared with Huprine X [4]	IC50 [1] [nM]	IC50 [2] [nM]	IC50 [5] [nM]
Nc1c2c(nc3cc(Cl)ccc13)CC1C=C(CCO)CC2C1 (centres unmarked) [HUP 2, 2-(12-Amino-3-chloro-6,7,10,11-tetrahydro-7,11-methanocycloocta[b]quinolin-9-yl) Ethanol]	1240	6.15	1.05 ± 0.13	as high as the Huprine X	–	–	–
C=CC(=O)OCCC1=CC2Cc3nc4cc(Cl)ccc4c(N)c3C(C1)C2 (centres unmarked) [HUP 18, 2-(12-Amino-3-chloro-6,7,10,11-tetrahydro-7,11-methanocycloocta[b]quinolin-9-yl)ethyl Acrylate]	207 ± 16	129	20.4 ± 4.6	–	–	–	–
CCOC(=O)C(CCC1=CC2Cc3nc4cc(Cl)ccc4c(N)c3C(C1)C2)C(=O)OCC (centres unmarked) [HUP 27, Diethyl[2-(12-Amino-3-chloro-6,7,10,11-tetrahydro-7,11-methanocycloocta[b]quinolin-9-yl)ethyl]malonate]	–	–	6.09 ± 0.42	–	319 ± 2	46.4	–
COC(=O)CCCC1=CC2Cc3nc4cc(Cl)ccc4c(N)c3C(C1)C2 (centres unmarked) [HUP 29, Methyl 4-(12-Amino-3-chloro-6,7,10,11-tetrahydro-7,11-methanocycloocta[b]quinolin-9-yl)butanoate]	–	–	14.6 ± 1.7	–	124 ± 11	37.6	–
Nc1c2c(nc3cc(Cl)ccc13)CC1C=C(CCCCO)CC2C1 (centres unmarked) [HUP 30, 4-(12-Amino-3-chloro-6,7,10,11-tetrahydro-7,11-methanocycloocta[b]quinolin-9-yl)butan-1-ol]	343 ± 43	50.1	22.4 ± 1.5	–	–	–	–
CS(=O)(=O)OCCCCC1=CC2Cc3nc4cc(Cl)ccc4c(N)c3C(C1)C2 (centres unmarked) [HUP 31, 4-(12-Amino-3-chloro-6,7,10,11-tetrahydro-7,11-methanocycloocta[b]quinolin-9-yl)butyl Methanesulfonate]	243 ± 12	13.3	4.76 ± 1.68	–	–	–	–
[N-]=[N+]=NCCCCC1=CC2Cc3nc4cc(Cl)ccc4c(N)c3C(C1)C2 (centres unmarked) [HUP 32, 9-(4-Azidobutyl)-3-chloro-6,7,10,11-tetrahydro-7,11-methanocycloocta[b]quinolin-12-amine]	260 ± 12	68.1	13.1 ± 4.7	–	–	–	–
COC(=O)c1cn(CCCCC2=CC3Cc4nc5cc(Cl)ccc5c(N)c4C(C2)C3)nn1 (centres unmarked) [HUP 33, Methyl 1-[4-(12-Amino-3-chloro-6,7,10,11-tetrahydro-7,11-methanocycloocta[b]quinolin-9-yl)butyl]-1H-1,2,3-triazole-4-carboxylate]	291 ± 25	10.7	0.34 ± 0.12	–	–	–	–
Nc1c2c(nc3cc(Cl)ccc13)CC1C=C(CCCCn3cc(CO)nn3)CC2C1 (centres unmarked) [HUP 34, {1-[4-(12-Amino-3-chloro-6,7,10,11-tetrahydro-7,11-methanocycloocta[b]quinolin-9-yl)butyl]-1H-1,2,3-triazol-4-yl}methanol Trifluoroacetic Acid]	213 ± 18	6.91	0.26 ± 0.08	–	–	–	–
CCC1=CC2Cc3nc4cc(Cl)ccc4c(N)c3[C@@H](C1)C2 [Huprine X]	–	–	–	–	–	–	~1
